Columns and labels:
[1] = molecular target: T1, GPR6 (Homo sapiens, UniProt P46095); assay: GPR6 antagonist functional cAMP assay (LANCE Ultra cAMP TR-FRET, CHO cells stably expressing GPR6); assay type: cell-based
T1 construct: expressed in transfected cells; host or cells: CHO cells
Outline: (§1)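 10,000 cells/well; KRB buffer + 0.1% BSA + 150 μM Ro 20-1724; cpd 45 min, 37 °C, 0.1% DMSO; TR-FRET cAMP, 665 nm; 4-PL fit, normalized to DMSO (0.1%) and reference (100%) → IC50.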

[2] = molecular target: T2, GPR3 (Homo sapiens, UniProt P46089); assay: GPR3 antagonist functional cAMP assay (LANCE Ultra cAMP TR-FRET, CHO cells stably expressing GPR3); assay type: cell-based
T2 construct: expressed in transfected cells; host or cells: CHO cells
T2 sequence (P46089 whole entry, species assumed): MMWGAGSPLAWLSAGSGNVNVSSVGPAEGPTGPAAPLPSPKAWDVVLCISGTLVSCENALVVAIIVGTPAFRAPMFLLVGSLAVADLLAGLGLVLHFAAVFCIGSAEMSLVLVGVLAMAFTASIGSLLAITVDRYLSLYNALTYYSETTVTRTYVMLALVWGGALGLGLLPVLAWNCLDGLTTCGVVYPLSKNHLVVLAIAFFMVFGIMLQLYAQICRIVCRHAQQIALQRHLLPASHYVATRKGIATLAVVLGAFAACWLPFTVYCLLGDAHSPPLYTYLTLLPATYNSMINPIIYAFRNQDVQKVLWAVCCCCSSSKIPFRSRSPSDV
Outline: as §1

[3] = CHO cells stably expressing GPR6, cAMP assay
[4] = CHO cells stably expressing GPR3, cAMP assay
[5] = CHO cells stably expressing GPR6, cAMP assay (Example 24)
[6] = CHO cells stably expressing GPR3, cAMP assay (Example 24)
[7] = procedure as described in Example 24

T1 sequence (P46095 whole entry): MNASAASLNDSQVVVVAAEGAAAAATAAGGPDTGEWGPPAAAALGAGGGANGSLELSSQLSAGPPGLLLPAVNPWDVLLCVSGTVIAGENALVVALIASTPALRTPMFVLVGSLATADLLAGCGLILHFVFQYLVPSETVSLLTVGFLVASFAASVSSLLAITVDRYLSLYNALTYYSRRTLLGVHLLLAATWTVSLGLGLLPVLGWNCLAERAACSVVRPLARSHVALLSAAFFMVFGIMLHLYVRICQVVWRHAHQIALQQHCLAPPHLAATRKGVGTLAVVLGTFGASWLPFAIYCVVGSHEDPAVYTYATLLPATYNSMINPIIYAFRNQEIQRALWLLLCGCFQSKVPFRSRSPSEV

Compound | IC50 [1, 5] | IC50 [2, 6] | also measured
Cn1cc(-c2nc3cnc(C(C)(O)C(C)(C)O)cc3nc2N2CCN(Cc3ccc(F)cc3F)CC2)cn1 (stereo not shown) [Compound 617, 2-(2-{4-[(2,4-difluorophenyl)methyl]-1-piperazinyl}-3-(1-methyl-4-pyrazolyl)-1,4,6-triaza-7-naphthyl)-3-methyl-2,3-butanediol] | – | – | IC50 ([1]; procedure of Example 24): 0.1 to 1 µM; IC50 ([2]; procedure of Example 24): 1 to 30 µM
CC(=O)N1CCc2nc(N3CCN(Cc4ccc(F)cc4F)CC3)c(-c3ccc(F)c(N)n3)nc2C1 [Compound 609, 1-[3-(6-amino-5-fluoro-2-pyridyl)-2-{4-[(2,4-difluorophenyl)methyl]-1-piperazinyl}-5,6,7,8-tetrahydro-1,4,6-triaza-6-naphthyl]-1-ethanone] | – | – | IC50 [1, 3]: 0.1 to 1 µM; IC50 [2, 4]: 0.1 to 1 µM
CC(=O)N1CCc2nc(N3CCC(C(=O)N(C)Cc4ccc(F)cc4F)C3)c(-c3cnn(C)c3)nc2C1 (stereo not shown) [Compound 387, 1-[6-acetyl-3-(1-methyl-1H-pyrazol-4-yl)-5H,6H,7H,8H-pyrido[3,4-b]pyrazin-2-yl]-N-[(2,4-difluorophenyl)methyl]-N-methylpyrrolidine-3-carboxamide] | 1 to 30 µM | 1 to 30 µM | –
O=C1CC(N2CCc3nc(N4CCC(Oc5ccc(F)cc5F)CC4)c(-c4cn[nH]c4)nc3C2)CN1 (stereo not shown) [Compound 229, 4-{2-[4-(2,4-difluorophenoxy)piperidin-1-yl]-3-(1H-pyrazol-4-yl)-5H,6H,7H,8H-pyrido[3,4-b]pyrazin-6-yl}pyrrolidin-2-one] | 1 to 30 µM | 1 to 30 µM | –
Fc1ccc(CN2CCN(c3nc4ccncc4nc3-c3cn[nH]c3)CC2)c(F)c1 [Compound 52, 1-[(2,4-difluorophenyl)methyl]-4-[3-(1H-pyrazol-4-yl)pyrido[3,4-b]pyrazin-2-yl]piperazine] | – | – | IC50 [1, 7]: 0.1 to 1 µM; IC50 [2, 7]: 1 to 30 µM
COc1ccnc(-c2nc3c(nc2N2CCC(Oc4ccc(F)cc4F)CC2)CCN(C(C)=O)C3)n1 [Compound 56, 1-{2-[4-(2,4-difluorophenoxy)piperidin-1-yl]-3-(4-methoxypyrimidin-2-yl)-5H,6H,7H,8H-pyrido[3,4-b]pyrazin-6-yl}ethan-1-one] | 1 to 30 µM | 0.1 to 1 µM | –
CC(=O)N1CCc2nc(N3CCC(Oc4ccc(F)cc4F)CC3)c(-c3cccc(OC(F)(F)F)n3)nc2C1 [Compound 223, 1-{2-[4-(2,4-difluorophenoxy)piperidin-1-yl]-3-[6-(trifluoromethoxy)pyridin-2-yl]-5H,6H,7H,8H-pyrido[3,4-b]pyrazin-6-yl}ethan-1-one] | 0.1 to 1 µM | 1 to 30 µM | –
Cn1cc(-c2nc3cnc(CC(O)CO)cc3nc2N2CCC(Oc3ccc(F)cc3F)CC2)cn1 (stereo not shown) [Compound 377, 3-(2-(4-(2,4-difluorophenoxy)piperidin-1-yl)-3-(1-methyl-1H-pyrazol-4-yl)pyrido[3,4-b]pyrazin-7-yl)propane-1,2-diol] | 0.1 to 1 µM | 1 to 30 µM | –
CCCn1cc(-c2nc3c(nc2N2CCC(Oc4ccc(F)cc4F)CC2)CCN(C(C)=O)C3)cn1 [Compound 312, 1-{2-[4-(2,4-difluorophenoxy)piperidin-1-yl]-3-(1-propyl-1H-pyrazol-4-yl)-5H,6H,7H,8H-pyrido[3,4-b]pyrazin-6-yl}ethan-1-one] | – | – | IC50 ([1]; procedure of Example 24): < 0.1 µM; IC50 ([2]; procedure of Example 24): 1 to 30 µM
CC(=O)N1CCc2nc(N3CCC(C(=O)Nc4ccc(F)cc4F)C3)c(-c3cnn(C)c3)nc2C1 (stereo not shown) [Compound 365, 1-[6-acetyl-3-(1-methyl-1H-pyrazol-4-yl)-5H,6H,7H,8H-pyrido [3,4-b]pyrazin-2-yl]-N-(2,4-difluorophenyl)pyrrolidine-3-carboxamide] | – | – | IC50 ([1]; procedure of Example 24): ≥ 30 µM; IC50 ([2]; procedure of Example 24): ≥ 30 µM
Cn1cc(-c2nc3cnccc3nc2N2CCN(Cc3ccc(F)cc3F)CC2=O)cn1 [Compound 259, 4-(2,4-difluorobenzyl)-1-(3-(1-methyl-1H-pyrazol-4-yl)pyrido[3,4-b]pyrazin-2-yl)piperazin-2-one] | ≥ 30 µM | ≥ 30 µM | –
CC(=O)N1CCc2nc(N3CCC(Oc4ccc(F)cc4F)CC3)c(-c3cccc(-c4cn[nH]c4)n3)nc2C1 [Compound 166, 1-{2-[4-(2,4-difluorophenoxy)piperidin-1-yl]-3-[6-(1H-pyrazol-4-yl)pyridin-2-yl]-5H,6H,7H,8H-pyrido[3,4-b]pyrazin-6-yl}ethan-1-one] | 0.1 to 1 µM | 1 to 30 µM | –
CC(=O)N1CCc2nc(N3CCC(Oc4ccc(F)cc4F)CC3)c(-c3cnn(C4COC4)c3)nc2C1 [Compound 77, 1-{2-[4-(2,4-difluorophenoxy)piperidin-1-yl]-3-[1-(oxetan-3-yl)-1H-pyrazol-4-yl]-5H,6H,7H,8H-pyrido [3,4-b]pyrazin-6-yl}ethan-1-one] | 0.1 to 1 µM | 1 to 30 µM | –
CC(C)S(=O)(=O)N1CCc2nc(N3CCC(Oc4ccc(F)cc4F)CC3)c(-c3ccc(F)c(N)n3)nc2C1 [Compound 627, 6-{2-[4-(2,4-difluorophenoxy)-1-piperidyl]-6-(isopropylsulfonyl)-5,6,7,8-tetrahydro-1,4,6-triaza-3-naphthyl}-3-fluoro-2-pyridylamine] | – | – | IC50 ([1]; procedure of Example 24): 0.1 to 1 µM; IC50 ([2]; procedure of Example 24): 1 to 30 µM
CC(=O)N1CCc2nc(N3CCC(Oc4ccc(F)cc4F)CC3)c(-c3cccn(C)c3=O)nc2C1 [Compound 113, 3-{6-acetyl-2-[4-(2,4-difluorophenoxy)piperidin-1-yl]-5H,6H,7H,8H-pyrido[3,4-b]pyrazin-3-yl}-1-methyl-1,2-dihydropyridin-2-one] | 1 to 30 µM | ≥ 30 µM | –
CC(=O)N1CCc2nc(N3CCC(Oc4ccccc4)C3)c(-c3cnn(C)c3)nc2C1 (stereo not shown) [Compound 418, 1-[3-(1-methyl-1H-pyrazol-4-yl)-2-(3-phenoxypyrrolidin-1-yl)-5H,6H,7H,8H-pyrido[3,4-b]pyrazin-6-yl]ethan-1-one] | 1 to 30 µM | 1 to 30 µM | –
CC(=O)N1CCc2nc(N3CCC(Oc4ccc(F)cc4F)CC3)c(-c3cnn(C4CC4)c3)nc2C1 [Compound 164] | 0.1 to 1 µM | 1 to 30 µM | –
Cn1cc(-c2nc3cnc(C4CNC(=O)CO4)cc3nc2N2CCC(Oc3ccc(F)cc3F)CC2)cn1 (stereo not shown) [Compound 464, 6-(2-(4-(2,4-difluorophenoxy)piperidin-1-yl)-3-(1-methyl-1H-pyrazol-4-yl)pyrido[3,4-b]pyrazin-7-yl)morpholin-3-one] | 0.1 to 1 µM | 1 to 30 µM | –
CCn1cc(-c2nc3cc(C(O)C(C)(C)O)ncc3nc2N2CCC(Oc3ccc(F)cc3F)CC2)cn1 (single isomer, unassigned) [Compound 588] | – | – | IC50 [1, 3]: < 0.1 µM; IC50 [2, 4]: 0.1 to 1 µM
Cn1cc(-c2nc3cnc([C@@H](O)C(C)(C)O)cc3nc2N2CCN(Cc3ccc(F)cc3F)CC2)cn1 (single isomer, unassigned) [Compound 578] | – | – | IC50 [1, 3]: 0.1 to 1 µM; IC50 [2, 4]: 1 to 30 µM
Cn1cc(-c2nc3cnc(C(N)=O)cc3nc2N2CCC(Oc3ccc(F)cc3F)CC2)cn1 [Compound 330, 2-[4-(2,4-difluorophenoxy)piperidin-1-yl]-3-(1-methyl-1H-pyrazol-4-yl)pyrido[3,4-b]pyrazine-7-carboxamide] | – | – | IC50 ([1]; procedure of Example 24): 0.1 to 1 µM; IC50 ([2]; procedure of Example 24): 1 to 30 µM
CCn1cc(-c2nc3cnc(C(O)C(C)(C)O)cc3nc2N2CCC(Oc3ccc(F)cc3F)CC2)cn1 (stereo not shown) [Compound 307, 1-{2-[4-(2,4-difluorophenoxy)piperidin-1-yl]-3-(1-ethyl-1H-pyrazol-4-yl)pyrido[3,4-b]pyrazin-7-yl}-2-methylpropane-1,2-diol] | – | – | IC50 ([1]; procedure of Example 24): 0.1 to 1 µM; IC50 ([2]; procedure of Example 24): 1 to 30 µM
CC(=O)N1CCc2nc(N3CCN(Cc4ccncc4)CC3)c(-c3cnn(C)c3)nc2C1 [Compound 518, 1-[3-(1-methyl-4-pyrazolyl)-2-{4-[(4-pyridyl)methyl]-1-piperazinyl}-5,6,7,8-tetrahydro-1,4,6-triaza-6-naphthyl]-1-ethanone] | – | – | IC50 [1, 3]: 1 to 30 µM; IC50 [2, 4]: 1 to 30 µM
COc1cncc(-c2nc3cnc(CO)cc3nc2N2CCN(Cc3ccc(F)cc3F)CC2)n1 [Compound 95, (2-(4-(2,4-difluorobenzyl)piperazin-1-yl)-3-(6-methoxypyrazin-2-yl)pyrido[3,4-b]pyrazin-7-yl)methanol] | 1 to 30 µM | 1 to 30 µM | –
O=S(=O)(C1COC1)N1CCc2nc(N3CCC(Oc4ccc(F)cc4F)CC3)c(-c3cn[nH]c3)nc2C1 [Compound 207, 4-(2,4-difluorophenoxy)-1-[6-(oxetane-3-sulfonyl)-3-(1H-pyrazol-4-yl)-5H,6H,7H,8H-pyrido[3,4-b]pyrazin-2-yl]piperidine] | 1 to 30 µM | 1 to 30 µM | –
Cn1cc(-c2nc3cnc(N4CCOCC4)cc3nc2N2CCC(Oc3ccc(F)cc3F)CC2)cn1 [Compound 449, 4-{2-[4-(2,4-difluorophenoxy)piperidin-1-yl]-3-(1-methyl-1H-pyrazol-4-yl)pyrido[3,4-b]pyrazin-7-yl}morpholine] | 1 to 30 µM | 1 to 30 µM | –
CC(=O)N1CCc2nc(N3CCC(COc4ccccc4F)C3)c(-c3cnn(C)c3)nc2C1 (stereo not shown) [Compound 323, 1-(2-{3-[(2-fluorophenoxy)methyl]pyrrolidin-1-yl}-3-(1-methyl-1H-pyrazol-4-yl)-5H,6H,7H,8H-pyrido[3,4-b]pyrazin-6-yl)ethan-1-one] | – | – | IC50 ([1]; procedure of Example 24): 1 to 30 µM; IC50 ([2]; procedure of Example 24): 1 to 30 µM
CC(=O)N1CCc2nc(N3CCC(Oc4ccc(F)cc4F)CC3)c(-c3cnn(CCO)c3)nc2C1 [Compound 88, 1-{2-[4-(2,4-difluorophenoxy)piperidin-1-yl]-3-[1-(2-hydroxyethyl)-1H-pyrazol-4-yl]-5H,6H,7H,8H-pyrido[3,4-b]pyrazin-6-yl}ethan-1-one] | 1 to 30 µM | 1 to 30 µM | –
CC(=O)N1CCc2nc(N3CCN(Cc4ccc(F)cc4F)C[C@H]3C)c(-c3cnn(C)c3)nc2C1 (single isomer, unassigned) [Compound 231] | 1 to 30 µM | 1 to 30 µM | –

Source: patent publication US20260042755A1, “GPR6 INVERSE AGONISTS” (MapLight Therapeutics, Inc., priority 2022, published 2026)
